Results published in the C3SDB collision cross section collection.

conditions: [M+H]+; instrument: TW; Major Mix IMS/Tof Calibration Kit (Waters)

Row | collision cross section (N2) | SMILES
1 | 200.8 Å² | O=C(O)COCCN1CCN(C(c2ccccc2)c2ccc(Cl)cc2)CC1 (stereo not given) [Cetirizine]
2 | 233 Å² | CC(C)c1c(C(=O)Nc2ccccc2)c(-c2ccccc2)c(-c2ccc(F)cc2)n1CC[C@@H](O)C[C@@H](O)CC(=O)O [Atorvastatin]
3 | 183 Å² | COc1cc(CNC(=O)CCCC/C=C/C(C)C)ccc1O [Capsaicin]
4 | 216.6 Å² | CCC1=C(C)CN(C(=O)NCCc2ccc(S(=O)(=O)NC(=O)NC3CCC(C)CC3)cc2)C1=O (stereo not given) [Glimepiride]
5 | 169.5 Å² | CCCC1C(=O)N2C(N(C)C)=Nc3ccc(C)cc3N2C1=O (stereo not given) [Apazone]
6 | 163.1 Å² | NCCCC12CCC(c3ccccc31)c1ccccc12 [Maprotiline-M N-desmethyl]
7 | 226.9 Å² | CC(C)(C(=O)O)c1ccc(C(O)CCCN2CCC(C(O)(c3ccccc3)c3ccccc3)CC2)cc1 (stereo not given) [Fexofenadine]
8 | 189.2 Å² | CCC(=O)NS(=O)(=O)c1ccc(-c2c(-c3ccccc3)noc2C)cc1 [Parecoxib]
9 | 177.7 Å² | OC(CCN1CCCCC1)(c1ccccc1)C1C[C@H]2C=C[C@@H]1C2 (stereo not given in full) [Biperiden]
10 | 151 Å² | c1cnc2cc3c(cc2n1)[C@@H]1CNC[C@H]3C1 [Varenicline]
11 | 211.7 Å² | CCc1nn(CCCN2CCN(c3cccc(Cl)c3)CC2)c(=O)n1CCOc1ccccc1 [Nefazodone]
12 | 187.2 Å² | CCOC(=O)[C@H](CCc1ccccc1)N[C@@H](C)C(=O)N1CCC[C@H]1C(=O)O [Enalapril]
13 | 170.6 Å² | CN(C)CCCN1c2ccccc2Sc2ccc(Cl)cc21 [Chlorpromazine]
14 | 196.2 Å² | CCCCOc1cc(C(=O)NCCN(CC)CC)c2ccccc2n1 [Dibucaine]
15 | 166.9 Å² | COc1ccc2c3c1O[C@H]1C[C@@H](O)C=C[C@@]31CCN(C)C2 [Galantamine]
16 | 174.3 Å² | CN(C)CCCN1c2ccccc2CCc2ccc(Cl)cc21 [Clomipramine]
17 | 202.9 Å² | OCc1cc([C@@H](O)CNCCCCCCOCCCCc2ccccc2)ccc1O [Salmeterol]
18 | 198.9 Å² | Cc1cnc(C(=O)NCCc2ccc(S(=O)(=O)NC(=O)NC3CCCCC3)cc2)cn1 [Glipizide]
19 | 197.4 Å² | OCCOCCN1CCN(C(c2ccccc2)c2ccc(Cl)cc2)CC1 (stereo not given) [Hydroxyzine]
20 | 205.5 Å² | Cc1nc2n(c(=O)c1CCN1CCC(c3noc4cc(F)ccc34)CC1)CCCC2 [Risperidone]
21 | 162.1 Å² | CNS(=O)(=O)Cc1ccc2[nH]cc(CCN(C)C)c2c1 [Sumatriptan]
22 | 167 Å² | CC(C)NCC(O)c1ccc(NS(C)(=O)=O)cc1 (stereo not given) [Sotalol]
23 | 185.6 Å² | CC1Cc2ccccc2N1NC(=O)c1ccc(Cl)c(S(N)(=O)=O)c1 (stereo not given) [Indapamide]

Row | SMILES | collision cross section (N2)
24 | O=C1C[C@@H]2OCC=C3CN4CC[C@]56c7ccccc7N1[C@H]5[C@H]2[C@H]3C[C@H]46 [Strychnine] | 172 Å²
25 | NC1(c2ccccc2Cl)CCCCC1=O (stereo not given) [Ketamine-M nor] | 147.1 Å²
26 | CNC1(c2ccccc2Cl)CCCCC1=O (stereo not given) [Ketamine] | 149.2 Å²
27 | O=C1CN=C(c2ccccn2)c2cc(Br)ccc2N1 [Bromazepam] | 159.8 Å²
28 | Cc1ncc2n1-c1ccc(Cl)cc1C(c1ccccc1F)=NC2 [Midazolam] | 172.8 Å²
29 | CN1CC[C@]23c4c5ccc(O)c4O[C@H]2[C@@H](O)C=C[C@H]3[C@H]1C5 [Morphine] | 164 Å²
30 | O=C1Nc2ccc(Br)cc2C(c2ccccn2)=NC1O (stereo not given) [3-Hydroxybromazepam] | 161 Å²
31 | CN1CCN=C(c2ccccc2)c2cc(Cl)ccc21 [Medazepam] | 160.8 Å²
32 | Nc1ccc2c(c1)C(c1ccccc1Cl)=NCC(=O)N2 [Clonazepam-M 7-amino] | 162.5 Å²
33 | O=C1CN=C(c2ccccc2)c2cc(Cl)ccc2N1 [Diazepam-M N-desmethyl] | 160.1 Å²
34 | CCN(C)C(=O)Oc1cccc([C@H](C)N(C)C)c1 [Rivastigmine] | 165 Å²
35 | Nc1ccc2c(c1)C(c1ccccc1)=NCC(=O)N2 [Nitrazepam-M 7-amino] | 158.1 Å²
36 | CCOC(=O)C(c1ccccc1)C1CCCCN1 (stereo not given) [Ethylphenidate] | 159.5 Å²
37 | CN(C)C(=O)Oc1cc(OC(=O)N(C)C)cc(C(O)CNC(C)(C)C)c1 (stereo not given) [Bambuterol] | 189.7 Å²
38 | O=C1Nc2ccc(Cl)cc2C(c2ccccc2Cl)=NC1O (stereo not given) [Lorazepam] | 165.8 Å²
39 | O=C1CN=C(c2ccccc2)c2cc(Cl)ccc2N1CC1CC1 [Prazepam] | 174 Å²
40 | CN1C(=O)CC(=O)N(c2ccccc2)c2cc(Cl)ccc21 [Clobazam] | 165.7 Å²
41 | CCCC(C(=O)c1ccc2c(c1)OCO2)N1CCCC1 (stereo not given) [MDPV] | 166.7 Å²

conditions: [M+HCOO]-; instrument: DT; single field, calibrated with Agilent tune mix (Agilent)

Row | collision cross section (N2) | SMILES
42 | 294.4 Å² | CCCCC/C=C\C/C=C\C/C=C\CCCCC(=O)OC[C@H](COP(=O)([O-])OCC[N+](C)(C)C)OC(=O)CCCCCCCCC/C=C\CCCCCCCC [PC(38:4)]
43 | 241.4 Å² | CCCCCCCCCCCCCCCCCC(=O)O[C@H](CO)COP(=O)([O-])OCC[N+](C)(C)C [LPC(18:0)]

same assay, conditions: [M+H]+; instrument: DT; single field, calibrated with Agilent tune mix (Agilent)

Row | collision cross section (N2) | SMILES
44 | 291.6 Å² | CCCCC/C=C\C/C=C\CCCCCCCCCCCC(=O)O[C@H](COC(=O)CCCCCCCCCCC)COP(=O)(O)O[C@H]1C(O)C(O)C(O)[C@@H](O)C1O (stereo not given in full) [PI(34:2)]
45 | 296.2 Å² | CCCCC/C=C\C/C=C\C/C=C\C/C=C\CCCCCC(=O)O[C@H](COC(=O)CCCCCCC/C=C\C/C=C\CCCCC)COP(=O)([O-])OCC[N+](C)(C)C [PC(40:6)]
